# Assay results published in PubChem BioAssay (NCI).
#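 Cells were grown in 96-well plates and exposed to each compound for 48 hours at five concentrations; endpoints were interpolated linearly between bracketing concentrations, or set to the highest concentration if not reached. Here, GI50 denotes the concentration required for 50% inhibition of growth. The concentration for full growth arrest is given as TGI.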
# How the values were obtained:
# Assay in all cases: NCI tumour cell line growth inhibition, 48 h
# HS 578T breast = test system: HS 578T breast
# SW-620 colon = test system: SW-620 colon
# DU-145 prostate = test system: DU-145 prostate
# CCRF-CEM leukemia = test system: CCRF-CEM leukemia
# HL-60(TB) leukemia = test system: HL-60(TB) leukemia
# ACHN renal = test system: ACHN renal
# EKVX NSCLC = test system: EKVX NSCLC
# A498 renal = test system: A498 renal
# UACC-62 melanoma = test system: UACC-62 melanoma
# RPMI-8226 leukemia = test system: RPMI-8226 leukemia
# OVCAR-5 ovarian = test system: OVCAR-5 ovarian
# SK-MEL-28 melanoma = test system: SK-MEL-28 melanoma
# SF-539 CNS = test system: SF-539 CNS
# RXF 393 renal = test system: RXF 393 renal
# MDA-MB-435 = test system: MDA-MB-435
# T-47D breast = test system: T-47D breast
# PC-3 prostate = test system: PC-3 prostate
# SK-MEL-5 melanoma = test system: SK-MEL-5 melanoma
# BT-549 breast = test system: BT-549 breast
# CAKI-1 renal = test system: CAKI-1 renal
# MOLT-4 leukemia = test system: MOLT-4 leukemia
# SK-OV-3 ovarian = test system: SK-OV-3 ovarian
# SNB-75 CNS = test system: SNB-75 CNS
# OVCAR-8 ovarian = test system: OVCAR-8 ovarian
# NCI/ADR-RES ovarian = test system: NCI/ADR-RES ovarian
# UACC-257 melanoma = test system: UACC-257 melanoma
# MALME-3M melanoma = test system: MALME-3M melanoma
# SN12C renal = test system: SN12C renal
# 786-0 renal = test system: 786-0 renal
# MCF7 breast = test system: MCF7 breast
# K-562 leukemia = test system: K-562 leukemia
# OVCAR-3 ovarian = test system: OVCAR-3 ovarian
# TK-10 renal = test system: TK-10 renal
# MDA-MB-231 breast = test system: MDA-MB-231 breast
# A549 NSCLC = test system: A549 NSCLC
# NCI-H23 lung = test system: NCI-H23 lung
# NCI-H460 lung = test system: NCI-H460 lung
# HT29 colon = test system: HT29 colon
# COLO 205 colon = test system: COLO 205 colon
# NCI-H226 lung = test system: NCI-H226 lung
# LOX IMVI melanoma = test system: LOX IMVI melanoma
# KM12 colon = test system: KM12 colon
# HCC-2998 colon = test system: HCC-2998 colon
# SK-MEL-2 melanoma = test system: SK-MEL-2 melanoma
# SNB-19 CNS = test system: SNB-19 CNS
# UO-31 renal = test system: UO-31 renal
# NCI-H522 lung = test system: NCI-H522 lung
# SF-268 CNS = test system: SF-268 CNS
# IGROV1 ovarian = test system: IGROV1 ovarian
# HOP-92 NSCLC = test system: HOP-92 NSCLC
# SR leukemia = test system: SR leukemia
# OVCAR-4 ovarian = test system: OVCAR-4 ovarian
# HOP-62 NSCLC = test system: HOP-62 NSCLC
# U251 CNS = test system: U251 CNS
# HCT-116 colon = test system: HCT-116 colon
# M14 melanoma = test system: M14 melanoma
# HCT-15 colon = test system: HCT-15 colon
structure (smiles),measurement,setting,value
C[C@H]1[C@H](C)CC[C@]2(C(=O)OCCOCCOCC[P+](c3ccccc3)(c3ccccc3)c3ccccc3)CC[C@]3(C)C(=CC[C@@H]4[C@@]5(C)CC[C@H](OC(=O)C(Cl)Cl)C(C)(C)[C@@H]5CC[C@]43C)[C@H]12,GI50,HS 578T breast,202 nM
same,TGI,HS 578T breast,3200 nM
same,GI50,SW-620 colon,234 nM
same,TGI,SW-620 colon,955 nM
same,GI50,DU-145 prostate,301 nM
same,TGI,DU-145 prostate,941 nM
same,GI50,CCRF-CEM leukemia,227 nM
same,TGI,CCRF-CEM leukemia,1610 nM
same,GI50,HL-60(TB) leukemia,161 nM
same,TGI,HL-60(TB) leukemia,804 nM
same,GI50,ACHN renal,540 nM
same,TGI,ACHN renal,1260 nM
C=Cc1c(C)c2cc3nc(cc4[nH]c(cc5nc(cc1[nH]2)C(C)=C5CCC(=O)O)c(CCC(=O)OC)c4C)[C@@]1(C)C3=CC=C(C(=O)OC)[C@H]1C(=O)OC,GI50,EKVX NSCLC,2100 nM
same,TGI,EKVX NSCLC,5380 nM
same,GI50,A498 renal,1190 nM
same,TGI,A498 renal,2520 nM
same,GI50,UACC-62 melanoma,1370 nM
same,TGI,UACC-62 melanoma,2800 nM
same,GI50,RPMI-8226 leukemia,1270 nM
same,TGI,RPMI-8226 leukemia,> 100000 nM
same,GI50,OVCAR-5 ovarian,1590 nM
same,TGI,OVCAR-5 ovarian,3070 nM
same,GI50,SK-MEL-28 melanoma,1510 nM
same,TGI,SK-MEL-28 melanoma,3000 nM
same,GI50,SF-539 CNS,1400 nM
same,TGI,SF-539 CNS,2700 nM
same,GI50,RXF 393 renal,1970 nM
same,TGI,RXF 393 renal,4470 nM
same,GI50,MDA-MB-435,357 nM
same,TGI,MDA-MB-435,1340 nM
same,GI50,T-47D breast,1480 nM
same,TGI,T-47D breast,4530 nM
same,GI50,PC-3 prostate,1430 nM
same,TGI,PC-3 prostate,6690 nM
same,GI50,SK-MEL-5 melanoma,1700 nM
same,TGI,SK-MEL-5 melanoma,3150 nM
same,GI50,BT-549 breast,1240 nM
same,TGI,BT-549 breast,2800 nM
same,GI50,CAKI-1 renal,1170 nM
same,TGI,CAKI-1 renal,2390 nM
same,GI50,MOLT-4 leukemia,388 nM
same,TGI,MOLT-4 leukemia,1890 nM
same,GI50,SK-OV-3 ovarian,1850 nM
same,TGI,SK-OV-3 ovarian,3540 nM
same,GI50,CCRF-CEM leukemia,829 nM
same,TGI,CCRF-CEM leukemia,3680 nM
same,GI50,SNB-75 CNS,846 nM
same,TGI,SNB-75 CNS,2180 nM
same,GI50,HL-60(TB) leukemia,2090 nM
same,TGI,HL-60(TB) leukemia,5700 nM
same,GI50,ACHN renal,1340 nM
same,TGI,ACHN renal,2620 nM
N#C/C=C(\c1ccc([N+](=O)[O-])cc1)n1nnc2cc(Cl)c(Cl)cc21,GI50,OVCAR-8 ovarian,3020 nM
same,TGI,OVCAR-8 ovarian,12000 nM
same,GI50,NCI/ADR-RES ovarian,2540 nM
same,TGI,NCI/ADR-RES ovarian,8790 nM
same,GI50,EKVX NSCLC,1910 nM
same,TGI,EKVX NSCLC,4670 nM
same,GI50,UACC-257 melanoma,2060 nM
same,TGI,UACC-257 melanoma,4530 nM
same,GI50,MALME-3M melanoma,1700 nM
same,TGI,MALME-3M melanoma,4180 nM
same,GI50,A498 renal,1740 nM
same,TGI,A498 renal,3430 nM
same,GI50,SN12C renal,2080 nM
same,TGI,SN12C renal,5400 nM
same,GI50,786-0 renal,2090 nM
same,TGI,786-0 renal,3580 nM
same,GI50,MCF7 breast,738 nM
same,TGI,MCF7 breast,3320 nM
same,GI50,UACC-62 melanoma,1770 nM
same,TGI,UACC-62 melanoma,3950 nM
same,GI50,K-562 leukemia,2390 nM
same,TGI,K-562 leukemia,> 100000 nM
same,GI50,OVCAR-3 ovarian,1880 nM
same,TGI,OVCAR-3 ovarian,3910 nM
same,GI50,RPMI-8226 leukemia,604 nM
same,TGI,RPMI-8226 leukemia,2910 nM
same,GI50,HS 578T breast,2390 nM
same,TGI,HS 578T breast,8940 nM
same,GI50,TK-10 renal,2600 nM
same,TGI,TK-10 renal,4160 nM
same,GI50,OVCAR-5 ovarian,1950 nM
same,TGI,OVCAR-5 ovarian,3990 nM
same,GI50,SK-MEL-28 melanoma,2080 nM
same,TGI,SK-MEL-28 melanoma,4230 nM
same,GI50,MDA-MB-231 breast,2340 nM
same,TGI,MDA-MB-231 breast,8660 nM
same,GI50,A549 NSCLC,3450 nM
same,TGI,A549 NSCLC,13600 nM
same,GI50,SF-539 CNS,1770 nM
same,TGI,SF-539 CNS,3260 nM
same,GI50,NCI-H23 lung,2280 nM
same,TGI,NCI-H23 lung,6680 nM
same,GI50,NCI-H460 lung,2360 nM
same,TGI,NCI-H460 lung,6980 nM
same,GI50,HT29 colon,2050 nM
same,TGI,HT29 colon,4230 nM
same,GI50,COLO 205 colon,1910 nM
same,TGI,COLO 205 colon,3910 nM
same,GI50,NCI-H226 lung,3000 nM
same,TGI,NCI-H226 lung,17100 nM
same,GI50,LOX IMVI melanoma,1670 nM
same,TGI,LOX IMVI melanoma,3190 nM
same,GI50,KM12 colon,2620 nM
same,TGI,KM12 colon,11300 nM
same,GI50,HCC-2998 colon,1770 nM
same,TGI,HCC-2998 colon,3330 nM
same,GI50,SK-MEL-2 melanoma,2560 nM
same,TGI,SK-MEL-2 melanoma,6420 nM
same,GI50,SNB-19 CNS,2370 nM
same,TGI,SNB-19 CNS,7140 nM
same,GI50,UO-31 renal,1110 nM
same,TGI,UO-31 renal,2320 nM
same,GI50,NCI-H522 lung,1720 nM
same,TGI,NCI-H522 lung,3570 nM
same,GI50,SF-268 CNS,3580 nM
same,TGI,SF-268 CNS,33500 nM
same,GI50,IGROV1 ovarian,1820 nM
same,TGI,IGROV1 ovarian,4080 nM
same,GI50,HOP-92 NSCLC,1780 nM
same,TGI,HOP-92 NSCLC,4280 nM
same,GI50,SR leukemia,1520 nM
same,TGI,SR leukemia,> 100000 nM
same,GI50,OVCAR-4 ovarian,1540 nM
same,TGI,OVCAR-4 ovarian,2890 nM
same,GI50,RXF 393 renal,1820 nM
same,TGI,RXF 393 renal,3770 nM
same,GI50,MDA-MB-435,1750 nM
same,TGI,MDA-MB-435,3700 nM
same,GI50,PC-3 prostate,1560 nM
same,TGI,PC-3 prostate,4000 nM
same,GI50,SK-MEL-5 melanoma,1830 nM
same,TGI,SK-MEL-5 melanoma,3600 nM
same,GI50,HOP-62 NSCLC,1990 nM
same,TGI,HOP-62 NSCLC,5040 nM
same,GI50,U251 CNS,1710 nM
same,TGI,U251 CNS,3370 nM
same,GI50,HCT-116 colon,1340 nM
same,TGI,HCT-116 colon,2700 nM
same,GI50,SW-620 colon,1750 nM
same,TGI,SW-620 colon,4150 nM
same,GI50,M14 melanoma,1860 nM
same,TGI,M14 melanoma,4500 nM
same,GI50,BT-549 breast,1770 nM
same,TGI,BT-549 breast,3770 nM
same,GI50,DU-145 prostate,1650 nM
same,TGI,DU-145 prostate,3300 nM
same,GI50,CAKI-1 renal,1370 nM
same,TGI,CAKI-1 renal,2910 nM
same,GI50,MOLT-4 leukemia,2710 nM
same,TGI,MOLT-4 leukemia,> 100000 nM
same,GI50,HCT-15 colon,1850 nM
same,TGI,HCT-15 colon,5360 nM
same,GI50,SK-OV-3 ovarian,5100 nM
same,TGI,SK-OV-3 ovarian,18500 nM
same,GI50,CCRF-CEM leukemia,2310 nM
same,TGI,CCRF-CEM leukemia,29400 nM
same,GI50,SNB-75 CNS,2130 nM
same,TGI,SNB-75 CNS,8110 nM
same,GI50,HL-60(TB) leukemia,2710 nM
same,TGI,HL-60(TB) leukemia,41100 nM
same,GI50,ACHN renal,1630 nM
same,TGI,ACHN renal,3160 nM
